Experimental findings from ChEMBL document CHEMBL5346925, “3,4-Dihydrobenzo[e][1,2,3]oxathiazine 2,2-dioxide analogs act as potential AMPA receptor potentiators with antidepressant activity” (Eur J Med Chem, 2023) are described below.

A short description of data set [1]: Ratio of drug concentration in brain to plasma in Sprague-Dawley rat at 1 mg/kg, po measured after 6 hrs by LC-MS/MS analysis. The format is ADME, organism-based. The conditions noted are these: read-out: BPR.
A short description of data set [2]: MRT (0 to t) in Sprague-Dawley rat at 1 mg/kg, po by LC-MS/MS analysis. The format is ADME, organism-based. The conditions noted are these: in vivo.
Data set [3] can be described thus: AUC (0 to infinity) in Sprague-Dawley rat at 1 mg/kg, po by LC-MS/MS analysis. The format is ADME, organism-based. Details: dose 1 mg/kg, route po. Conditions: in vivo.
A short description of data set [4]: Half life in Sprague-Dawley rat at 0.1 mg/kg, iv by LC-MS/MS analysis. It counts as ADME, organism-based. The conditions noted are these: in vivo.
Data set [5] is described as follows: Half life in Sprague-Dawley rat at 1 mg/kg, po by LC-MS/MS analysis. The format is ADME, organism-based. The conditions noted are these: in vivo.
The nature of data set [6]: Drug concentration in Sprague-Dawley rat plasma at 1 mg/kg, po measured after 1 hr by LC-MS/MS analysis. The format is ADME, organism-based.
Data set [7] can be described thus: Drug concentration in Sprague-Dawley rat plasma at 1 mg/kg, po measured after 8 hr by LC-MS/MS analysis. It counts as ADME, organism-based.
Data set [8] can be described thus: Toxicity in mouse assessed as histopathological changes in kidney at 0.2 to 0.4 mg/kg, ip administered once daily for 2 weeks and measured after 15 days by H and E staining based analysis. It counts as organism-based. Conditions: in vivo, 360 h, dose 0.2-0.4 mg/kg, time 15 day.
Data set [9] in a line: Drug concentration in Sprague-Dawley rat plasma at 1 mg/kg, po measured after 0.50 hrs by LC-MS/MS analysis. The format is ADME, organism-based.
A short description of data set [10]: Cmax in Sprague-Dawley rat at 1 mg/kg, po by LC-MS/MS analysis. The format is ADME, organism-based. Details: dose 1 mg/kg, route po. Conditions: in vivo.
Data set [11] can be described thus: Drug concentration in Sprague-Dawley rat plasma at 1 mg/kg, po measured after 0.25 hrs by LC-MS/MS analysis. The format is ADME, organism-based.
Another data set concerns Mus musculus. Description: Antidepressant activity in chronic restraint induced depressive mouse assessed as rescue in sucrose preference at 0.03 to 0.05 mg/kg administered for 2 days after 16th day by sucrose preference test. The format is functional, organism-based. The conditions noted are these: dose 0.03-0.05 mg/kg, time 2.0 day.

Structures are written as SMILES. The source made the active and inactive calls.

Usually MRT last stands for a mean duration of stay, worked out from the concentration-time curve. For orientation: AUC(0-inf) means total exposure, with the tail of the curve extrapolated. In general, half-life refers to the time needed for the level to fall by half in the phase considered. The low end stands for fast loss, the high end for slow loss. Broadly, the Cmax is the peak of the concentration-time curve. For `O=S1(=O)NCc2cccc(-c3ccc(-c4ccccc4F)cc3)c2O1`, in data set [1], the Kp at 6 h worked out at 1.73. The compound further returned a mean residence time MRT last in [2] of 5.22 h. For the same compound, the AUC(0-inf) in data set [3] amounted to 833 ng·h/mL. The half-life was 2.71 h in data set [4] and 4.84 h in [5]. In data set [6], the concentration at 1 h is 132 ng/mL. The compound also showed a concentration at 8 h in [7] of 25.5 ng/mL. For the same compound, the Activity result in data set [8] is reported as “Non-Toxic”. For the same compound, the concentration at 0.5 h in data set [9] came out at 142 ng/mL. In data set [10], this compound gave a maximum concentration (Cmax) of 142 ng/mL. This compound gave a concentration at 0.25 h in data set [11] of 125 ng/mL. In addition, the outcome in the data set with Mus musculus was Active.
